For 48 compounds, EC50 results are on record in patent US9840481B2, “Allosteric modulators of nicotinic acetylcholine receptors” (MERCK SHARP & DOHME CORP., priority 2016, dated 2017).

This assay concerns the target T1, human α7 nAChR stably expressed in a HEK cell line (with human RIC-3) (Homo sapiens, UniProt P36544).
T1 construct: PrecisION hnAChR α7/RIC-3
Briefly: Automated patch-clamp electrophysiology functional assay (Assay A), IonFlux HT, whole-cell population patch. It is filed as cell-based. The essentials: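 Whole-cell population patch clamp (IonFlux HT) used HEK cells stably co-expressing human α7 and RIC-3, held at −60 mV at room temperature. Compounds were applied alone (agonism) or with 40 μM acetylcholine (potentiation), three ascending concentrations per recording. Currents were quantified relative to a 40 μM acetylcholine reference response, giving EC50.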

The mark [1] stands for this setting: automated patch-clamp electrophysiology functional assay (Assay A), potency class by EC50, read-out: α7 nAChR Potency.
Where [2] appears, read: electrophysiology EC50, HEK cells expressing human α7/RIC-3, 40 μM acetylcholine, holding potential −60 mV, room temperature, read-out: α7 nAChR EC50.

pEC50: −log10 of the molar value. Where two headings read alike, the source gives them in different places.

T1 sequence (P36544 23-502): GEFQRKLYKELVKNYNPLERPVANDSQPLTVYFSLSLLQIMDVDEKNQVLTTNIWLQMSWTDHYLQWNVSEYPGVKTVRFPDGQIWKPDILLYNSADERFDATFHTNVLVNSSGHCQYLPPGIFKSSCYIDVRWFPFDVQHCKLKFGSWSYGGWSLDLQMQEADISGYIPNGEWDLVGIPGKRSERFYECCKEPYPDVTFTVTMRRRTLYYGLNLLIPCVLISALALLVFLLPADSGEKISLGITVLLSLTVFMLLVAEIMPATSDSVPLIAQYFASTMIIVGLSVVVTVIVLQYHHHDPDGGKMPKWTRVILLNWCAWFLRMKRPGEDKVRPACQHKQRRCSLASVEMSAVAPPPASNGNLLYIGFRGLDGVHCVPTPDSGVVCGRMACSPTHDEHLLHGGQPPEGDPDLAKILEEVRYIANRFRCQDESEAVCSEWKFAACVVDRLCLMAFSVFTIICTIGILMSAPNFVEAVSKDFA

For `NS(=O)(=O)c1ccc([C@@H]2C[C@H]2c2nc(-c3ccc(F)cc3C(F)(F)F)no2)cc1` [Example C7], the pEC50 was 5.30 to 6.30 under setting [1] and 6.02 under setting [2].
Consider `Cn1cc([C@H]2[C@H](c3ccc(S(N)(=O)=O)cc3)C2(C)C)nc1-c1cccc(F)c1` [Example 35, 4-{(1S,3S)-3-[2-(3-Fluorophenyl)-1-methyl-1H-imidazol-4-yl]-2,2-dimethylcyclopropyl}benzenesulfonamide], for which the pEC50 is 5.30 to 6.30 under setting [1] and 5.36 under setting [2].
Regarding `CC1(C)[C@@H](c2ccc(S(N)(=O)=O)cc2)[C@@H]1c1noc(-c2cccc3c2OCC(=O)N3)n1` [Example I31], the pEC50 under setting [1] is 5.30 to 6.30.
Same read-out and setting: next, `CC1(C)[C@@H](c2ccc(S(N)(=O)=O)cc2)[C@@H]1c1nc(-c2ccc(C(F)(F)F)nc2)no1` [Example D29]: 5.30 to 6.30.
Consider `NS(=O)(=O)c1ccc(C2CC2c2coc(-c3ccccc3)n2)cc1` (stereo not drawn) [Example 24, 4-[trans-2-(2-Phenyl-1,3-oxazol-4-yl)cyclopropyl]benzenesulfonamide], for which the pEC50 reads like this: under setting [1], 5.30 to 6.30; under setting [2], 5.62.
Taken in the same sequence, the figures for `CC1(C)[C@@H](c2ccc(S(N)(=O)=O)cc2)[C@@H]1c1nnc(-c2c(F)cccc2C(F)(F)F)o1` [Example G17] were 5.30 to 6.30 and 6.02.
Turning to `CC1(C)[C@@H](c2ccc(S(N)(=O)=O)cc2)[C@@H]1c1nnc(-c2ccc(F)cc2F)o1` [Example 6, 4-{(1S,3S)-3-[5-(2,4-Difluorophenyl)-1,3,4-oxadiazol-2-yl]-2,2-dimethylcyclopropyl}benzenesulfonamide], the pEC50 under setting [1] is 5.30 to 6.30 and the pEC50 under setting [2] was 5.96.
On the same counts, the results for `CC(C)Oc1ccc(Cl)cc1-c1noc([C@H]2[C@H](c3ccc(S(N)(=O)=O)cc3)C2(C)C)n1` [Example C3] are 4.30 to 5.30 and 5.21.
Taken in the same sequence, the figures for `CC1(C)[C@@H](c2ccc(S(N)(=O)=O)cc2)[C@@H]1c1nnc(C2CCCCC2)s1` [Example G13] were 5.30 to 6.30 and 5.66.
As to `CC1(C)[C@H](c2ccc(S(N)(=O)=O)cc2)[C@H]1c1nc(-c2ccccc2)no1` [Example A3], under setting [1], the pEC50 was 5.30 to 6.30.
Take `NS(=O)(=O)c1ccc(C2C(c3ncc(-c4ccccc4)o3)C2(F)F)cc1` (racemic) [Example M1]: the pEC50 under setting [1] is 5.30 to 6.30.
Regarding `CC1(C)[C@@H](c2ccc(S(N)(=O)=O)cc2)[C@@H]1c1nc(-c2ccccn2)no1` [Example D4], the pEC50 under setting [1] was 4.30 to 5.30 and the pEC50 under setting [2] is 5.17.
Take `CC1(C)C(c2ccc(S(N)(=O)=O)cc2)C1c1cc(C2CCCC2)on1` (stereo not drawn) [Example 34, 4-(trans-3-(5-Cyclopentylisoxazol-3-yl)-2,2-dimethylcyclopropyl)benzenesulfonamide]: the pEC50 under setting [1] was 6.30 to 7.00 and the pEC50 under setting [2] was 6.80.
On the same counts, the results for `CC1(C)[C@@H](c2ccc(S(N)(=O)=O)cc2)[C@@H]1c1noc(C2CC(O)C2)n1` (stereo partly drawn) [Example I30] are 5.30 to 6.30 and 5.42.
Consider `CC1(C)[C@@H](c2ccc(S(N)(=O)=O)cc2)[C@@H]1c1nnc(-c2ccccc2C(F)(F)F)o1` [Example G4], for which the pEC50 under setting [1] was 5.30 to 6.30.
On the same count and under the same terms, next, `CC1(C)[C@@H](c2ccc(S(N)(=O)=O)cc2)[C@@H]1c1noc(-c2ccc(OC(F)(F)F)cc2)n1` [Example H13]: 5.30 to 6.30.
`CC1(C)[C@H](c2ccc(S(N)(=O)=O)cc2)[C@H]1c1nnc(-c2ccccc2)s1` [Example F4]: the pEC50 is, setting by setting: under setting [1], 6.30 to 7.00; under setting [2], 6.38.
Consider `CC1(C)[C@@H](c2ccc(S(N)(=O)=O)cc2)[C@@H]1c1nc(C2(C(F)(F)F)CC2)no1` [Example D33], for which the pEC50 under setting [1] is 6.30 to 7.00 and the pEC50 under setting [2] was 6.68.
Regarding `CC1(C)[C@H](c2ccc(S(N)(=O)=O)cc2)[C@H]1c1nnc(-c2cccnc2C2CC2)o1` [Example F6], the pEC50 under setting [1] was 5.30 to 6.30.
Still for that read-out and setting: in the case of `NS(=O)(=O)c1ccc([C@H]2C[C@@H]2c2nc(-c3ccc(F)cc3F)no2)cc1` [Example A8] it was 4.30 to 5.30.
Regarding `CC1(C)[C@H](c2ccc(S(N)(=O)=O)cc2)[C@H]1c1nc(C2CCOC2)no1` (stereo partly drawn) [Example B11], the pEC50 is 4.30 to 5.30 under setting [1] and 5.24 under setting [2].
Regarding `CC1(C)[C@H](c2ccc(S(N)(=O)=O)cc2)[C@H]1c1cnn(C2CCCC2)c1` [Example L8], under setting [1], the pEC50 was 5.30 to 6.30.
`CC1(C)C(c2ccc(S(N)(=O)=O)c(F)c2)C1c1nc(-c2ccccc2)no1` (single isomer, unassigned; enantiomer a) [Example 32, 4-[trans-2,2-Dimethyl-3-(3-phenyl-1,2,4-oxadiazol-5-yl)cyclopropyl]-2-fluorobenzenesulfonamide, enantiomer A]: the pEC50 by setting is: under setting [1], 5.30 to 6.30; under setting [2], 6.07.
Take `NS(=O)(=O)c1ccc(C2C(c3nc(-c4ccccc4)no3)C23CCCC3)cc1` (single isomer, unassigned) [Example M3]: the pEC50 by setting is: under setting [1], at least 7.00; under setting [2], 7.08.
In the case of `CC(C)c1noc([C@@H]2[C@@H](c3ccc(S(N)(=O)=O)cc3)C2(F)F)n1` [Example 7, 4-{(1S,3S)-2,2-Difluoro-3-[3-(propan-2-yl)-1,2,4-oxadiazol-5-yl]cyclopropyl}benzenesulfonamide], the pEC50 reads like this: under setting [1], 5.30 to 6.30; under setting [2], 6.04.
`NS(=O)(=O)c1ccc([C@@H]2C[C@H]2c2ncc(-c3cccc(F)c3)s2)cc1` [Example K20]: the pEC50 under setting [1] is 6.30 to 7.00.
Still for that read-out and setting: in the case of `CC1(C)[C@H](c2ccc(S(N)(=O)=O)cc2)[C@H]1c1noc(C2CCCCC2)n1` [Example L16] it was 5.30 to 6.30; in that of `CC1(C)[C@H](c2ccc(S(N)(=O)=O)cc2)[C@H]1c1nnc(-c2cc(F)ccc2C(F)(F)F)o1` [Example F2], 5.30 to 6.30.
In the case of `CC1(C)[C@@H](c2ccc(S(N)(=O)=O)cc2)[C@@H]1c1noc(-c2cc(F)cc(F)c2F)n1` [Example H10], the pEC50 runs as follows: under setting [1], 6.30 to 7.00; under setting [2], 6.62.
Taken in the same sequence, the figures for `CC1(C)[C@@H](c2ccc(S(N)(=O)=O)cc2)[C@@H]1c1noc(-c2ccc(C#N)cc2)n1` [Example H12] were 5.30 to 6.30 and 5.92.
As to `CC1(C)[C@H](c2ccc(S(N)(=O)=O)cc2)[C@H]1c1cc(-c2ccccc2)no1` [Example 11, 4-[(1R,3R)-2,2-Dimethyl-3-(3-phenylisoxazol-5-yl)cyclopropyl]benzenesulfonamide], the pEC50 was 6.30 to 7.00 under setting [1] and 6.34 under setting [2].
As for `CC1(C)[C@@H](c2ccc(S(N)(=O)=O)cc2)[C@@H]1c1ncc(C2CCCC2)o1` [Example K14], the pEC50 under setting [1] was 5.30 to 6.30.
As to `CC1(C)[C@@H](c2ccc(S(N)(=O)=O)cc2)[C@@H]1c1nnc(-c2ccccc2)s1` [Example G7], the pEC50 was 5.30 to 6.30 under setting [1] and 5.74 under setting [2].
On the same counts, the results for `NS(=O)(=O)c1ccc([C@@H]2C[C@H]2c2nc(-c3ccccc3)co2)cc1` [Example 9, 4-[(1R,2R)-2-(4-Phenyl-1,3-oxazol-2-yl)cyclopropyl]benzenesulfonamide] are 6.30 to 7.00 and 6.37.
With `NS(=O)(=O)c1ccc([C@H]2[C@H](c3nc(C4CCCCC4)cs3)C2(F)F)cc1` [Example K19], the pEC50 was 6.30 to 7.00 under setting [1] and 6.80 under setting [2].
As for `CC1(C)[C@@H](c2ccc(S(C)(=O)=O)cc2)[C@@H]1c1nc(-c2ccccc2)no1` (relative stereo) [Example 33], the pEC50 is, setting by setting: under setting [1], 5.30 to 6.30; under setting [2], 5.96.
On the same counts, the results for `Cc1ncccc1-c1noc([C@@H]2C[C@H]2c2ccc(S(N)(=O)=O)cc2)n1` [Example D16] are 5.30 to 6.30 and 5.89.
For the compound `CC1(C)[C@@H](c2ccc(S(N)(=O)=O)cc2)[C@@H]1c1noc(-c2cc3sccc3[nH]2)n1` [Example I22], the pEC50 is, setting by setting: under setting [1], 4.30 to 5.30; under setting [2], 5.27.
As for `CC1(C)[C@@H](c2ccc(S(N)(=O)=O)cc2)[C@@H]1c1noc(-c2c[nH]c(C3CC3)n2)n1` [Example I8], the pEC50 by setting is: under setting [1], 5.30 to 6.30; under setting [2], 5.36.
As for `CC1(C)[C@H](c2ccc(S(N)(=O)=O)cc2)[C@H]1c1nc(-c2cc(F)ccc2F)co1` [Example J3], the pEC50 under setting [1] was 5.30 to 6.30.
On to `Cc1cccc(F)c1-c1nc([C@H]2[C@H](c3ccc(S(N)(=O)=O)cc3)C2(C)C)no1` [Example H6], for which, under setting [1], the pEC50 was 6.30 to 7.00.
Take `CC1(C)[C@@H](c2ccc(S(N)(=O)=O)cc2)[C@@H]1c1noc(-c2cnc(SCC(F)(F)F)o2)n1` [Example I18]: the pEC50 is, setting by setting: under setting [1], 5.30 to 6.30; under setting [2], 5.89.
Turning to `CC(C)(C)c1coc([C@@H]2[C@@H](c3ccc(S(N)(=O)=O)cc3)C2(C)C)n1` [Example J4], the pEC50 was 5.30 to 6.30 under setting [1] and 5.49 under setting [2].
As to `CC1(C)[C@@H](c2ccc(S(N)(=O)=O)cc2)[C@@H]1c1nnc(-c2cccc(C(F)(F)F)c2)o1` [Example G2], under setting [1], the pEC50 was 5.30 to 6.30.
For `NS(=O)(=O)c1ccc([C@@H]2C[C@H]2c2noc(N3CCCCC3)n2)cc1` [Example 37, 4-{(1R,2R)-2-[5-(Piperidin-1-yl)-1,2,4-oxadiazol-3-yl]cyclopropyl}benzenesulfonamide], the pEC50 was 6.30 to 7.00 under setting [1] and 6.62 under setting [2].
In the case of `NS(=O)(=O)c1ccc([C@@H]2C[C@H]2c2cnc(-c3ccccc3)o2)cc1` [Example L3], under setting [1], the pEC50 was 5.30 to 6.30.
The same measure, in the same setting: in the case of `CC(c1nc([C@H]2[C@H](c3ccc(S(N)(=O)=O)cc3)C2(C)C)no1)n1ccnc1` (stereo partly drawn) [Example I11] it was 4.30 to 5.30.
For the compound `NS(=O)(=O)c1ccc([C@@H]2C[C@H]2c2nc(-c3ccc(F)cc3)no2)cc1` [Example C14], the pEC50 under setting [1] was at least 7.00 and the pEC50 under setting [2] was 7.03.
